For data set [1] the following is noted: cited from earlier work.
Data set [2] can be described thus: Fluorescence measurement of probe with cysteine. Conditions: 100 nM probe. Here is the method: The reaction was carried out using the 100 nM probe (compound 2) and 10 mM cysteine at 37° C. for 30 minutes in 50 mM Tris-HCl (pH 7.4). A fluorescence spectrum was obtained with a fluorescence spectrometer (FP-6500; JASCO). Fluorescence was obtained by excitation at 490 nm at a scanning range of 450 to 650 nm.
Fluorescence was monitored by excitation at 490 nm.

Data set [3] is described as follows: Reactivity of probe with thiol (fluorescence intensity at 522 nm). To be noted: 1 μM probe, 37° C., 30 minutes, 50 mM Tris-HCl pH 7.4. The method, then:
The reactivity of the probe (compound 2) with several types of thiols was examined by measuring an increase in the fluorescence intensity at 522 nm. The reaction was carried out using the 1 μM probe and 1 mM thiol at 37° C. for 30 minutes in 50 mM Tris-HCl (pH 7.4).
In addition, as a comparative example, a compound represented by the following formula (3) was used as a probe, and its reactivity was examined in the same above manner:
After addition of thiol, the solution was incubated at 37° C. for 30 minutes. The fluorescence at 522 nm was monitored by excitation at 490 nm. “3′-thio dT” indicates 3′-phosphorothioate-2′-deoxythymidine; “DTT” indicates dithiothreitol; “GSH” indicates glutathione; “L-Gly” indicates L-glycine; and “Vc” indicates ascorbic acid.

The test system of the next data set is HeLa cells. The data set is described as follows: Fluorescence microscope observation of living HeLa cells. It counts as cell-based. The method, then:
HeLa cells were allowed to grow at 37° C. in a 5% CO2 atmosphere in MEM in order to use them for a test with living cells. The cells were incubated at 37° C. for 15 minutes in the presence of the 25 μM probe (compound 2) (1:100 DMSO/PBS(−), v/v). As a control experiment, the cells were treated with 1 mM N-methylmaleimide in PBS(−) at 37° C. for 60 minutes, and the resultant cells were then washed with a PBS(−) buffer three times. Thereafter, the cells were incubated at 37° C. for 15 minutes in the presence of the 25 μM probe (1:100 DMSO/PBS(−), v/v).
The fluorescence image was obtained using a digital camera (Cool Snap HQ; Roper Scientific) and imaging software (MetaMorph; Molecular Devices), under a fluorescence microscope equipped with a mercury lamp (Axiovert 200M; Carl Zeiss). The conditions of the microscope were determined as follows. Excitation: 470/40 bandpass filter; light emission: 525/50 bandpass filter; and irradiation time: 300 msec.
(a, b): a control image of the cells, which were pre-treated with N-methylmaleimide (1 mM) at 37° C. for 60 minutes and were then incubated together with the probe (25 μM) at 37° C. for 15 minutes; (c, d): an image of the cells, which were incubated together with the probe (25 μM) at 37° C. for 15 minutes; (a, c) a bright-field image; (b, d) a fluorescent image. The conditions of the microscope were determined as follows. Excitation: 470/40 bandpass filter; light emission: 525/50 bandpass filter; and irradiation time: 300 msec.

A short description of data set [4]: Stability of probe on heating in Tris buffer. The data set is classed as physicochemical. To be noted: 55° C. for 24 hours in 50 mM Tris buffer (pH 7.4).
The nature of data set [5]: Fluorescence measurement in solution with GSH. To be noted: 100 nM probe. Here is the method:
The 100 nM probe (compound 4) was allowed to react with 10 mM GSH in 50 mM Tris-HCl (pH 7.4) at 37° C. for 30 minutes. Thereafter, the fluorescence intensity was measured using a fluorescence spectrometer (FP-6500; JASCO) (excitation wavelength: 540 nm).

Another data set deals with HL60. The data set can be described thus: Flow cytometry of HL60 cells. The data set is classed as cell-based. Conditions: 100 μM probe, 37° C., 15 minutes; control pre-treated with 1 mM N-methylmaleimide 30 minutes. The method, then:
The 100 μM probe (compound 4) was added to HL60, and the mixture was then reacted at 37° C. for 15 minutes. Thereafter, a measurement was then carried out by flow cytometry. 1 mM N-methylmaleimide (N-MMI) used as a thiol-blocking agent was added to HL60, and the obtained mixture was then reacted at 37° C. for 30 minutes. Thereafter, the 100 μM probe was added to the reaction product, and the obtained mixture was reacted at 37° C. for 15 minutes. Thereafter, the measurement was carried out by flow cytometry.
For orientation: In flow cytometry, cells or beads pass a laser one at a time.

As to `OCCS` [2-mercaptoethanol], the pKa value in data set [1] is reported as 9.5.
As for `O=C1OC2(c3ccc(NS(=O)(=O)c4ccc([N+](=O)[O-])cc4[N+](=O)[O-])cc3Oc3cc(NS(=O)(=O)c4ccc([N+](=O)[O-])cc4[N+](=O)[O-])ccc32)c2ccccc21` [compound 2], in data set [2] (10 mM cysteine, 50 mM Tris-HCl pH 7.4, 37° C., 30 minutes, excitation 490 nm), the “increase in fluorescence intensity around 520 nm after addition of cysteine (factor)” value is “approximately 3500”. Besides, the “fluorescence of the probe without cysteine” value in data set [2] (no cysteine, 50 mM Tris-HCl pH 7.4, excitation 490 nm) is “no significant fluorescence was observed”. Further, in data set [3] (1 mM 2-mercaptoethanol (ME)), the “increase in fluorescence intensity at 522 nm” value worked out at 11 times. Further, in data set [3] (glycine, ascorbic acid, or hydrogen peroxide), the “activity on other biological substances (selectivity)” value is given as “did not exhibit activity”. In the data set on HeLa cells (HeLa cells pre-treated with 1 mM N-methylmaleimide 60 minutes, then 25 μM probe 15 minutes), the “fluorescence signal of cells pre-treated with thiol-blocking agent” value was “no fluorescence signal was observed”. For the same molecule, the permeation into cells entry in the data set on HeLa cells (HeLa cells, 25 μM probe) was “permeates into the cell membrane”. Further, the “fluorescence signal of cells” value with HeLa cells (HeLa cells, 25 μM probe, 15 minutes, 37° C.) is given as “significant fluorescence signal”. In data set [4], the “stability: fluorescence signal after heating” value was “no increase in the fluorescence signal was detected”.
For `Nc1ccc2nc3c4ccccc4/c(=N\S(=O)(=O)c4ccc([N+](=O)[O-])cc4[N+](=O)[O-])cc-3oc2c1` [compound 4], in data set [5] (10 mM GSH, 37° C., 30 minutes, 50 mM Tris-HCl pH 7.4, excitation 540 nm), the “fluorescence intensity at 620 nm after reaction with GSH” value is given as “an increase in the fluorescence intensity was observed”. The “fluorescence of the probe as a single body (without GSH)” value in data set [5] (excitation 540 nm, 50 mM Tris-HCl pH 7.4) is recorded as “generated no fluorescence”. For the same molecule, the “fluorescence intensity of HL60 cells (−N-MMI) versus HL60 cells (+N-MMI)” value with HL60 was “higher”.
For `O=C1OC2(c3ccc(NS(=O)(=O)c4ccc([N+](=O)[O-])cc4)cc3Oc3cc(NS(=O)(=O)c4ccc([N+](=O)[O-])cc4)ccc32)c2ccccc21` [formula (3), reference compound], the “increase in fluorescence intensity at 522 nm” value in data set [3] (1 mM phosphorothioate (3′-thio dT)) was “approximately 950 times”. Also, in data set [3] (1 mM thiols other than phosphorothioate), the “reaction with other thiol groups” value was “did not react with other thiol groups”.

Values taken from patent US8187825B2, “Thiol detection method” (Riken, priority 2008, dated 2012).
